According to patent US12226412B2, “Heteroaryl-ketone fused azadecalin glucocorticoid receptor modulators” (Corcept Therapeutics, Inc., priority 2012, dated 2025):
Where two headings read alike, the source gives them in different places.

Assays:
human recombinant GR = target: T1, human recombinant GR (Homo sapiens, UniProt P04150); test: Human glucocorticoid receptor (GR) fluorescence polarisation (FP) binding assay
T1 construct: purchased PanVera P2812
T1 sequence (P04150 1-777): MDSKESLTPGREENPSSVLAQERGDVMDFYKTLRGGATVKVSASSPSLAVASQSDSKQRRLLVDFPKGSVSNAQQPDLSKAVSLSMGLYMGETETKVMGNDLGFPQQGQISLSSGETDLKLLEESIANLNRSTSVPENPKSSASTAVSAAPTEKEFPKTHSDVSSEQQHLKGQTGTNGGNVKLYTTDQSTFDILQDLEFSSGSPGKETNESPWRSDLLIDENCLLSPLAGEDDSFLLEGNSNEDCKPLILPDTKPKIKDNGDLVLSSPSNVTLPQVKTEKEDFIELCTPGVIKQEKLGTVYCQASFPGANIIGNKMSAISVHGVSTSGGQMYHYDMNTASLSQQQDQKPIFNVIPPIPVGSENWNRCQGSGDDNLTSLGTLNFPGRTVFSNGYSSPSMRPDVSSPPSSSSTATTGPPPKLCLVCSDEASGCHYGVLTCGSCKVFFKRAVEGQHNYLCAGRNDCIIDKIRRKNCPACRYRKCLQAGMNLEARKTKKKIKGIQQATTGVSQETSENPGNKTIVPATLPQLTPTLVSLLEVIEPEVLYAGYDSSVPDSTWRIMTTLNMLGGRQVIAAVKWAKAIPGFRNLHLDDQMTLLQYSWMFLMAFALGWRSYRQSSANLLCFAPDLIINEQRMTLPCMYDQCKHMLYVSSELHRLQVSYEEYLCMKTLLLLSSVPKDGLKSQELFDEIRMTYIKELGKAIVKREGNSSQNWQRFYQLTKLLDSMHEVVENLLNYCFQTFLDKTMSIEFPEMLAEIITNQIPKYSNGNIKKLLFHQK
Method: Human Glucocorticoid Receptor (GR) Fluorescence Polarisation (FP) Binding Assay
The following is a description of a FP assay for measuring compound inhibition of labelled glucocorticoid binding to the human recombinant GR.
The binding affinity of test compounds was determined using a FP binding assay using human recombinant GR (PanVera P2812) and a fluorescent labelled glucocorticoid ligand (Fluorome GS Red) (PanVera P2894). The presence of inhibitors prevents the formation of a GS Red/GR complex resulting in a decrease in the measured polarisation value. The change in polarisation value in the presence of test compounds is used to calculate the binding affinity of the compound for GR.
This assay was performed in 384 well, black, round-bottom, polypropylene micro titre plates in a final volume of 20 μl. The assay contained 5 μl 1 nM GR (final concentration), 5 μl 0.5 nM Fluorome GS Red (final concentration) in the presence of 10 μl test compounds. Positive control wells (high polarisation) receive, 10 μl 2% (v: v) DMSO vehicle (1% (v/v) final concentration)+5 μl 1 nM GR and 5 μl 0.5 nM Fluorome GS Red. […] Assay blank background wells (used for normalisation) receive 15 μl 1× GS screening buffer+5 μl GR.
Compounds were prepared as solubilised solids at 10 mM in DMSO. On the day of assay, an 8 point half-log serial dilution (55 μl DMSO+25 μl compound solution) was prepared. A 1:50 dilution (1 μl compound solution+49 μl 1× GR screening buffer) was prepared for each compound. The compounds were prepared at 2× final assay concentration.
The plates were mixed and incubated for 4 hour at room temperature.
10× GR screening buffer (100 mM potassium phosphate pH 7.4, 200 mM Na2MoO4, 1 mM EDTA, 20% (v/v) DMSO). To prepare 1× GR screening buffer, combine 1 ml 10× GR screening buffer (PanVera P2814)+1 ml stabilising peptide (PanVera P2815)+7.95 ml 4° C. MQ water. Add 50 μl 1M DTT, vortex and place on ice until use.

[1] = test system: induction of TAT by dexamethasone in HepG2 cells; test: HepG2 tyrosine aminotransferase (TAT) assay; format: cell-based, human
Method: Example 21. HepG2 Tyrosine Aminotransferase (TAT) Assay
Glucocorticoid mediated activation of TAT occurs by transactivation of glucocorticoid response elements in the TAT promoter by glucocorticoid receptor agonist complex.
TAT activity was measured as outlined in the literature by A. Ali et al., J. Med. Chem., 2004, 47, 2441-2452.
HepG2 cells were cultured using MEME media supplemented with 10% (v/v) foetal bovine serum; 2 mM L-glutamine and 1% (v/v) NEAA at 37° C., 5%/95% (v/v) CO2/air. The HepG2 cells were counted and adjusted to yield a density of 0.125×10^6 cells/ml in RPMI 1640 without phenol red, 10% (v/v) charcoal stripped FBS, 2 mM L-glutamine and seeded at 25,000 cells/well in 200 μl into 96 well, sterile, tissue culture micro titre plates, and incubated at 37° C., 5% CO2 for 24 hours
Growth media was removed and replaced with assay media {RPMI 1640 without phenol red, 2 mM L-glutamine+10 μM forskolin}. […] Compounds were serially half log diluted in 100% (v/v) dimethylsupfoxide from a 10 mM stock.
HepG2 cells were then lysed with 30 μl of cell lysis buffer containing a protease inhibitor cocktail for 15 minutes at 4° C. 155 μl of substrate mixture was then added containing 5.4 mM Tyrosine sodium salt, 10.8 mM alpha ketoglutarate and 0.06 mM pyridoxal 5′ phosphate in 0.1M potassium phosphate buffer (pH 7.4). After 2 hours incubation at 37° C. the reaction was terminated by the addition of 15 μl of 10M aqueous potassium hydroxide solution, and the plates incubated for a further 30 minutes at 37° C. The TAT activity product was measured by absorbance at […].
[compound] and fitting the data to a 4 parameter logistic equation.

[2] = human recombinant GR, fluorescence polarisation binding assay, read-out: GR binding
[3] = HepG2 cells, challenge of 100 nM dexamethasone, Ki from IC50 by Cheng and Prusoff equation

Ki (human recombinant GR; [2]) | SMILES | Ki [1, 3] | Ki (human recombinant GR) | Ki [1]
0.0005 to 0.001 µM | COc1ccc(C(=O)[C@]23Cc4cnn(-c5ccc(F)cc5)c4C=C2CCN(S(=O)(=O)c2ccc(C(F)(F)F)cc2)C3)nc1 [Example 5H, (R)-(1-(4-fluorophenyl)-6-((4-(trifluoromethyl)phenyl)sulfonyl)-4,4a,5,6,7,8-hexahydro-1H-pyrazolo[3,4-g]isoquinolin-4a-yl)(5-methoxypyridin-2-yl)methanone] | < 0.02 µM | – | –
< 0.0005 µM | O=C(c1ccccn1)[C@]12Cc3cnn(-c4ccc(F)cc4)c3C=C1CCN(S(=O)(=O)c1ccc(OC(F)F)cc1)C2 [Example 11H, (R)-(6-((4-(difluoromethoxy)phenyl)sulfonyl)-1-(4-fluorophenyl)-4,4a,5,6,7,8-hexahydro-1H-pyrazolo[3,4-g]isoquinolin-4a-yl)(pyridin-2-yl)methanone] | < 0.02 µM | – | –
< 0.0005 µM | Cn1cc(S(=O)(=O)N2CCC3=Cc4c(cnn4-c4ccc(F)cc4)C[C@]3(C(=O)c3ccccn3)C2)c(C(F)(F)F)n1 [Example 11BP, (R)-(1-(4-fluorophenyl)-6-((1-methyl-3-(trifluoromethyl)-1H-pyrazol-4-yl)sulfonyl)-4,4a,5,6,7,8-hexahydro-1H-pyrazolo[3,4-g]isoquinolin-4a-yl)(pyridin-2-yl)methanone] | ≥ 0.1 µM | – | –
< 0.0005 µM | O=C(c1ccccn1)[C@]12Cc3cnn(-c4ccc(F)cc4)c3C=C1CCN(S(=O)(=O)c1ccc(Cl)cc1)C2 [Example 11A, (R)-(6-((4-chlorophenyl)sulfonyl)-1-(4-fluorophenyl)-4,4a,5,6,7,8-hexahydro-1H-pyrazolo[3,4-g]isoquinolin-4a-yl)(pyridin-2-yl)methanone] | < 0.02 µM | – | –
< 0.0005 µM | O=C(c1ccccn1)[C@]12Cc3cnn(-c4ccccc4)c3C=C1CCN(S(=O)(=O)c1cccc(C(F)(F)F)c1)C2 [Example 11AZ, (R)-(1-phenyl-6-((3-(trifluoromethyl)phenyl)sulfonyl)-4,4a,5,6,7,8-hexahydro-1H-pyrazolo[3,4-g]isoquinolin-4a-yl)(pyridin-2-yl)methanone] | 0.02 to 0.1 µM | – | –
< 0.0005 µM | Cn1ncnc1C(=O)[C@]12Cc3cnn(-c4ccc(F)cc4)c3C=C1CCN(S(=O)(=O)c1ccc(C(F)(F)F)cc1)C2 [Example 5D, (R)-(1-(4-fluorophenyl)-6-((4-(trifluoromethyl)phenyl)sulfonyl)-4,4a,5,6,7,8-hexahydro-1H-pyrazolo[3,4-g]isoquinolin-4a-yl)(1-methyl-1H-1,2,4-triazol-5-yl)methanone] | ≥ 0.1 µM | – | –
< 0.0005 µM | CN1CCOc2cc(S(=O)(=O)N3CCC4=Cc5c(cnn5-c5ccc(F)cc5)C[C@]4(C(=O)c4ccccn4)C3)cnc21 [Example 11AB, (R)-(1-(4-fluorophenyl)-6-((4-methyl-3,4-dihydro-2H-pyrido [3,2-b][1,4]oxazin-7-yl)sulfonyl)-4,4a,5,6,7,8-hexahydro-1H-pyrazolo[3,4-g]isoquinolin-4a-yl)(pyridin-2-yl)methanone] | 0.02 to 0.1 µM | – | –
< 0.0005 µM | O=C(c1ccccn1)[C@]12Cc3cnn(-c4ccc(F)cc4)c3C=C1CCN(S(=O)(=O)c1ccc(N3CCCC3)nc1)C2 [Example 8, (R)-(1-(4-fluorophenyl)-6-((6-(pyrrolidin-1-yl)pyridin-3-yl)sulfonyl)-4,4a,5,6,7,8-hexahydro-1H-pyrazolo[3,4-g]isoquinolin-4a-yl)(pyridin-2-yl)methanone] | ≥ 0.1 µM | – | –
– | O=C(c1cccs1)[C@]12Cc3cnn(-c4ccc(F)cc4)c3C=C1CCN(S(=O)(=O)c1ccc(C(F)(F)F)cc1)C2 [Example 1H, (R)-(1-(4-fluorophenyl)-6-((4-(trifluoromethyl)phenyl)sulfonyl)-4,4a,5,6,7,8-hexahydro-1H-pyrazolo[3,4-g]isoquinolin-4a-yl)(thiophen-2-yl)methanone] | – | < 0.0005 µM | 0.02 to 0.1 µM
– | O=C(c1nccs1)[C@]12Cc3cnn(-c4ccc(F)cc4)c3C=C1CCN(S(=O)(=O)c1ccc(C(F)(F)F)cc1)C2 [Example 1C, (R)-(1-(4-fluorophenyl)-6-((4-(trifluoromethyl)phenyl)sulfonyl)-4,4a,5,6,7,8-hexahydro-1H-pyrazolo[3,4-g]isoquinolin-4a-yl)(thiazol-2-yl)methanone] | – | < 0.0005 µM | < 0.02 µM
< 0.0005 µM | Cc1ccnc(C(=O)[C@]23Cc4cnn(-c5ccc(F)cc5)c4C=C2CCN(S(=O)(=O)c2cnn(C)c2)C3)c1 [Example 11T, (R)-(1-(4-fluorophenyl)-6-((1-methyl-1H-pyrazol-4-yl)sulfonyl)-4,4a,5,6,7,8-hexahydro-1H-pyrazolo[3,4-g]isoquinolin-4a-yl)(4-methylpyridin-2-yl)methanone] | < 0.02 µM | – | –
0.0005 to 0.001 µM | COc1c(F)cc(S(=O)(=O)N2CCC3=Cc4c(cnn4-c4ccc(F)cc4)C[C@]3(C(=O)c3ccccn3)C2)cc1F [Example 15D, (R)-(6-((3,5-difluoro-4-methoxyphenyl)sulfonyl)-1-(4-fluorophenyl)-4,4a,5,6,7,8-hexahydro-1H-pyrazolo[3,4-g]isoquinolin-4a-yl)(pyridin-2-yl)methanone] | < 0.02 µM | – | –
< 0.0005 µM | CCc1ccc(S(=O)(=O)N2CCC3=Cc4c(cnn4-c4ccc(F)cc4)C[C@]3(C(=O)c3ccccn3)C2)cc1 [Example 2D, (R)-(6-((4-ethylphenyl)sulfonyl)-1-(4-fluorophenyl)-4,4a,5,6,7,8-hexahydro-1H-pyrazolo[3,4-g]isoquinolin-4a-yl)(pyridin-2-yl)methanone] | < 0.02 µM | – | –
< 0.0005 µM | O=C(c1nccs1)[C@]12Cc3cnn(-c4ccc(F)cc4)c3C=C1CCN(S(=O)(=O)c1ccc(F)c(C(F)(F)F)c1)C2 [Example 12I, (R)-(6-((4-fluoro-3-(trifluoromethyl)phenyl)sulfonyl)-1-(4-fluorophenyl)-4,4a,5,6,7,8-hexahydro-1H-pyrazolo[3,4-g]isoquinolin-4a-yl)(thiazol-2-yl)methanone] | 0.02 to 0.1 µM | – | –
< 0.0005 µM | O=C(c1nccs1)[C@]12Cc3cnn(-c4ccc(F)cc4)c3C=C1CCN(S(=O)(=O)c1ccccc1)C2 [Example 12D, (R)-(1-(4-fluorophenyl)-6-(phenylsulfonyl)-4,4a,5,6,7,8-hexahydro-1H-pyrazolo [3,4-g]isoquinolin-4a-yl)(thiazol-2-yl)methanone] | < 0.02 µM | – | –
